Values of other authors, collected in US20040052761A1, “Localized delivery system for cancer drugs, phenstatin, using N-isopropylacrylamide” (priority 2002, published 2004).

Legend:
[1] = tested on: tubulin; conditions: reference (1)
[2] = tested on: tubulin; conditions: reference (1); remark: listed apart in the source

Compound: COc1ccc(C(=O)c2cc(OC)c(OC)c(OC)c2)cc1O [Phenstatin]
- inhibition of tubulin polymerization [1]: potent inhibitor
- inhibition of the binding of colchicines to tubulin [2]: potent inhibitor
